Reference: the NIST ThermoML archive (doi:10.1021/je800863c)
Numbers after ± are expanded uncertainties.

Details: for surface tension liquid-gas: Pendant drop shape; for viscosity / mass density: 101.33 kPa, Liquid; for viscosity: Falling or rolling sphere viscometry; for mass density: Vibrating tube method

Row | SMILES | surface tension liquid-gas (298.15 K) | viscosity (298.15 K) | mass density (298.15 K) | surface tension liquid-gas (313.15 K) | viscosity (313.15 K) | mass density (313.15 K)
1 | CCCCn1cc[n+](C)c1.CCOS(=O)(=O)[O-] [1-butyl-3-methyl-1H-imidazolium ethyl sulfate] | 36.38 ± 0.51 mN/m | 379.1 ± 33 mPa·s | 1198.93 ± 1.3 kg/m3 | 33.91 ± 0.48 mN/m | 164 ± 12 mPa·s | 1188.69 ± 1.2 kg/m3
2 | CCCCn1cc[n+](C)c1.COS(=O)(=O)[O-] [1-butyl-3-methylimidazolium methyl sulfate] | 43.3 ± 1.2 mN/m |  | 1212.95 ± 8 kg/m3 | 42.09 ± 1.1 mN/m | 104.2 ± 7.7 mPa·s | 1199.75 ± 7.8 kg/m3
3 | CCCCCCn1cc[n+](C)c1.CCOS(=O)(=O)[O-] [1-hexyl-3-methylimidazolium ethyl sulfate] | 31.77 ± 0.45 mN/m | 589 ± 57 mPa·s | 1150.6 ± 1.2 kg/m3 | 29.63 ± 0.43 mN/m | 236 ± 19 mPa·s | 1140.6 ± 1.1 kg/m3
4 | CCCCCCCC[n+]1ccn(C)c1.COS(=O)(=O)[O-] [1-methyl-3-octylimidazolium methyl sulfate] | 30.41 ± 0.44 mN/m |  | 1114.47 ± 1.1 kg/m3 | 30.03 ± 0.43 mN/m | 180.6 ± 15 mPa·s | 1104.64 ± 1.1 kg/m3
5 | CCCCCCCC[n+]1ccn(C)c1.CCOS(=O)(=O)[O-] [1-methyl-3-octylimidazolium ethyl sulfate] | 28.67 ± 0.41 mN/m |  | 1115.93 ± 1.1 kg/m3 | 27.94 ± 0.41 mN/m | 275.2 ± 25 mPa·s | 1106.2 ± 1.1 kg/m3
6 | CCOS(=O)(=O)[O-].CCn1cc[n+](C)c1 [1-ethyl-3-methylimidazolium ethyl sulfate] |  | 91.8 ± 6.2 mPa·s | 1236.26 ± 8.3 kg/m3 | 46.78 ± 1.2 mN/m | 48.5 ± 3.2 mPa·s | 1226.79 ± 8.2 kg/m3
7 | CCCCCCn1cc[n+](C)c1.COS(=O)(=O)[O-] [1-hexyl-3-methylimidazolium methyl sulfate] | 33.59 ± 0.48 mN/m | 383 ± 34 mPa·s | 1168.83 ± 1.2 kg/m3 | 33.54 ± 0.48 mN/m | 164.3 ± 12 mPa·s | 1158.87 ± 1.2 kg/m3
8 | COS(=O)(=O)[O-].Cn1cc[n+](C)c1 [1,3-dimethylimidazolium methylsulfate] | 59.42 ± 0.8 mN/m | 75.5 ± 4.7 mPa·s | 1328.38 ± 1.6 kg/m3 | 58.99 ± 0.8 mN/m | 40.8 ± 2.5 mPa·s | 1317.85 ± 1.6 kg/m3
